Results on one compound are retold here after US7323494B2, “Compounds and methods” (SmithKline Beecham Corporation, priority 2002, dated 2008).

Experiment [1] concerns the target T1, LXRα ligand binding domain (Homo sapiens, UniProt Q13133).
T1 construct: His tag; made in house
T1 sequence (Q13133 183-447): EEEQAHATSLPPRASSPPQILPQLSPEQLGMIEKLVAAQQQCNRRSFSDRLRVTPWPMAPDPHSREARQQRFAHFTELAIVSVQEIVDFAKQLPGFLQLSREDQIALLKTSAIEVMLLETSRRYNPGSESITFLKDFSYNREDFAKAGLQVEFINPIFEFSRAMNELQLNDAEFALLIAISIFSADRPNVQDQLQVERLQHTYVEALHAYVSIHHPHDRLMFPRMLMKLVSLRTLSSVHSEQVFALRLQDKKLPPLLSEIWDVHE
T1 sequence (Q15788 676-700 partner): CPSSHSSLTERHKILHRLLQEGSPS
Nature of the experiment: Ligand Sensing Assay for LXRα agonist activity. The experiment is classed as biochemical. The conditions noted are these: 1 μM; over a background reading of 10000 fluorescence units. Here is the method: Test Method 2: Ligand Sensing Assay for LXRα Agonist Activity
The assay for LXRα was run according to the procedures of Test Method 1, above using his-tagged LXRα ligand binding domain (amino acids 183-447 of Genbank accession number U22662, with the 14th amino acid corrected to A from R). In this assay 1 μM 24(S),25-epoxycholesterol gave a reading of 20000 fluorescence units over a background reading of 10000 fluorescence units.

Experiment [2] addresses T2, human LXRβ ligand binding domain (Homo sapiens, UniProt P55055).
T2 construct: made in house; host or cells: E. coli BL21 (DE3), pRSETa
T2 sequence (P55055 184-460 limits assumed): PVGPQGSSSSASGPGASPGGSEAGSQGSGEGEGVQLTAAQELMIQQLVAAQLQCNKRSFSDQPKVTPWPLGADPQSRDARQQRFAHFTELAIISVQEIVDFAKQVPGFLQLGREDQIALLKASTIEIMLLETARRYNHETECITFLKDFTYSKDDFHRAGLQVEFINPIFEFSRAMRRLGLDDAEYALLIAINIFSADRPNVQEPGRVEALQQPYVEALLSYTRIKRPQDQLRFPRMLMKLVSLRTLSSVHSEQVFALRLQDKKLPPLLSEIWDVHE
T2 sequence (Q15788 676-700 partner limits assumed): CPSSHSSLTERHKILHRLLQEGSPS
In words: Ligand Sensing Assay (LiSA) for LXRβ agonist activity (SRC1 peptide recruitment). It counts as biochemical. The settings on record: 1 μM; over a background reading of 10000 fluorescence units. The text has this: Test Method 1: Ligand Sensing Assay (LiSA) for LXRβ Agonist Activity
This assay measures the recruitment of a peptide derived from the coactivator protein, SRC1, to the agonist-bound LXR[…]. Peptides derived from other nuclear receptor cofactors may be similarly prepared and assayed.
To generate the human LXRβ ligand binding domain suitable for LISA, a modified polyhistidine tag (MKKGHHHHHHG) (SEQ ID No. 1) was fused in frame to the human LXRβ ligand binding domain (amino acids 185-461 of Genbank accession number U07132) and subcloned into the expression vector pRSETa (Invitrogen) under the control of an IPTG inducible T7 promoter. The human LXRβ ligand binding domain was expressed in E. coli strain BL21 (DE3). Ten-liter fermentation batches were grown in Rich PO4 media with 0.1 mg/mL Ampicillin at 25° C. for 12 hours, cooled to […] and held at that temperature for 36 hours to a density of OD600=14. […]
Typically 25-50 g of cell paste is resuspended in 250-500 mL TBS, pH 8.0 (25 mM Tris, 150 mM NaCl). […] After washing to baseline absorbance with equilibration buffer, the column is washed with approximately one column volume of TBS pH-8.0 containing 95 mM imidazole. […] After washing to baseline absorbance with the dilution buffer the protein is eluted with a gradient from 50-500 mM NaCl. […]

Take `C[C@H](CC[C@@H]1OC1(C)C)[C@H]1CC[C@H]2[C@@H]3CC=C4C[C@@H](O)CC[C@]4(C)[C@H]3CC[C@]12C` [24(S),25-epoxycholesterol]: the “reading (fluorescence units)” value in experiment [1] and in experiment [2] was 20000 fluorescence units each time.
